Measurements: patent US20020142982A1, “Method for regulating angiogenesis” (priority 1999, published 2002)

Tests used:
Type in all cases: cell-based, human
HUVEC [1] = test: Adherens junction assembly in HUVEC, immunofluorescence of VE-cadherin and catenins; details: 500 nM, 1 hour
Description: To investigate whether SPP regulates the formation of adherens junction in endothelial cells, HUVEC were plated at a density of 2×10^4 cells/em^2 for 2 days, starved in lipid-depleted medium and treated without (cont) or with SPP (500 nM for 1 hours). For these experiments, after treatment cells were washed with ice-cold PBS, fixed with 4% formaldehyde at room temperature or methanol at −20° C. for 15 minutes. In the case of formaldehyde fixation, cells were permeabilized with 0.2% TX-100. After washing with PBS, cells were stained with antibodies as follows: VE-cadherin ([…], Transduction Labs, San Diego, Calif.; 1 μg/mL, Santa Cruz Biotechnology, Inc., Santa Cruz, Calif.), α-catenin ([…], Transduction Labs), β-catenin (1.25 μg/mL, Transduction Labs; 0.4 μg/mL, Santa Cruz), γ-catenin ([…], Transduction Labs). The primary antibody staining was visualized with FITC-conjugated goat anti-rabbit or TRITC conjugated sheep anti-mouse (1:1000, Cappel, now owned by ICN, Costa Mesa, Calif.) for 30 minutes at room temperature, and imaged on a Zeiss Axiovert 100TV fluorescence microscope. […]

HUVEC [2] = test: HUVEC morphogenesis on MATRIGEL (in vitro angiogenesis, tubular length); details: 12-18 hours; SPM and C1P 1 μM
Description: FIG. 42 is microscope images showing morphogenesis of HUVEC cells plated on Matrigel. HUVEC cells were transduced with 50 MOI of indicated viruses; a,b=none, c=β-gal, d=wild-type EDG-1, e=T236AEDG-1, f=T236AEDG-1+wild-type Akt. Total viral load in c-f is normalized. In vitro angiogenesis assay on Matrigel was conducted in the presence (b to f) or not (a) of 100 nM S1P. The numbers are mean±s.e.m of total tubular length per microscopic field (n=2). Scale bar=170 μm.
To investigate SPP induction of angiogenesis, 200 μL aliquots of thawed MATRIGEL were polymerized in 24-well tissue culture plates. HUVEC were trypsinized, resuspended in plain M199 medium containing soybean trypsin inhibitor (10 mg/mL, Sigma Chemical Co., St. Louis, Mo.). Following centrifugation (250 g; 5 minutes), cells were resuspended in plain M199 supplemented with 2% CFBS at a density of 1.5×10^5 cells/mL. 200 μL of cell suspension were seeded on these gels in the presence or absence of SPP (Biomol), for 12-18 hours. Cells were rinsed two times with phosphate buffered saline (PBS), and then fixed with 4% formaldehyde. Results were recorded photographically using a Zeiss Axiovert 100TV microscope equipped with a 5× objective. Five random fields of each well were photographed, and total tubular length was quantified by image analysis (Kinsella, J. et al., Experimental Cell Research 199: 56-62 (1992); Gamble J., et al., J. Cell Biol. 121: 931-943 (1993)).
Scale bar represents 52 microns. These quantitative data are the mean±standard deviation of duplicate determinations from a representative experiment which was repeated at least three times. SPP concentrations (in μM) are indicated in parentheses. For SPP +PTx, HUVEC were pretreated with PTx (200 ng/mL) for 2 hours, trypsinized, plated onto MATRIGEL, then stimulated with 500 nM SPP in the presence of PTx (20 ng/mL) for 16-18 hours. For SPP+C3, HUVEC were pretreated with C3 exoenzyme (10 μg/mL) for 48 hours, trypsinized, plated onto MATRIGEL, stimulated with 500 nM SPP together with the same concentration of C3 exotoxin. SPM, sphingomyelin (1 μM). For C1P, C8-ceramide-1-phosphate (1 μM). The maximal effects achieved by 1 μM SPP was indistinguishable from the positive control medium which contained FBS.
In these experiments, HUVEC were plated onto MATRIGEL in the presence of the same amount of corresponding antibodies without or with 500 nM SPP. 16 hours later, total length of HUVEC networks formed on MATRIGEL was quantified.

HUVEC [3] = test: SPP-induced intracellular calcium in HUVEC (Indo-1 fluorescence); details: HUVEC stimulated with SPP
Description: Functional assays were used to test for the presence of Gi-coupled and Gq-coupled SPP receptors in HUVEC. First, intracellular calcium levels were measured in response to SPP. For these experiments, cells were grown on 100-mm tissue culture dishes and loaded with the fluorescent calcium-sensitive dye, Indo-1 acetoxymethyl ester (Indo-1/AM, 5 μg/mL; Molecular Probes, Inc., Eugene, Oreg.), for 30 min at 37° C. Cells were then washed with medium M199, briefly trypsinized (0.05% porcine trypsin/0.02% EDTA in HBSS (JRH Biosciences, Lenexa, Kans.), and the trypsin activity was immediately neutralized with soybean trypsin inhibitor (5 μg/mL, Sigma Chemical Co., St. Louis, Mo.). Following centrifugation (250 g×5 min), cells were resuspended in M199 medium to a density of 2.7×10^5 cells/mL. Cells were then stimulated with different doses of SPP. Some cells were pretreated with the Gi inhibitor pertussis toxin (PTx, 500 ng-/mL) for 16 hours. Calcium ion concentration was then quantified by measuring changes in indo-1 fluorescence in 2 mL of cell suspension by a Hitachi F-2000 fluorescence Spectrophotometer with constant stirring. Fluorescence emission was monitored at 400 and 475 nm with excitation at 352 nm. [Ca^+2]1 was calculated as described in Volpi and Berlin, J. Cell Biol., Vol. 107, 2533-39 (1988).

## CCCCCCCCCCCCC/C=C/[C@@H](O)[C@@H](N)COP(=O)(O)O [SPP, sphingosine-1-phosphate]
HUVEC [1]
  VE-cadherin, α-, β- and γ-catenin localization at cell-cell junctions: dramatically increased
HUVEC [2]
  HUVEC morphogenesis on MATRIGEL (tubular length): promoted HUVEC morphogenesis in a dose-dependent manner
HUVEC [3]
  intracellular calcium response: robust calcium response
